Data from patent publication US11225505B2, “Antimicrobial polymyxin derivative compounds” (MONASH UNIVERSITY, priority 2015, dated 2022).
Converted amounts (≈) assume the structure as drawn. Like-named read-outs stand apart in the source and are kept apart here. Where a SMILES comes first, the peptide text is derived from it. Bridges are numbered along the chain shown (N, C = ends). [ ]: non-standard residue; d: D form. The star is where a group is joined. X22 = Cn1c(C(=O)*)cc2ccccc21; X23 = O=C(c1cc2ccccc2[nH]1)*; X27 = O=C(c1sc2ccccc2c1Cl)*; X39 = O=C(c1noc2ccccc12)*; Dab = NCC[C@H](N)C(=O)O; X68 = O=C(c1coc(Br)c1)*; Abu = CC[C@H](N)C(=O)O; Dap = NC[C@H](N)C(=O)O

How the values were obtained:
Format in all cases: cell-based
[1] = tested on: Acinetobacter baumannii ATCC 17978
Summary of the method: (§1)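 The read-out is the MIC, obtained by CLSI broth microdilution (M100-S24) in cation-adjusted Mueller-Hinton broth. The compounds were lipopeptide TFA salts, and polymyxin B sulphate served as control.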

[2] = tested on: Acinetobacter baumannii FADDI-AB034
Summary of the method: as §1

[3] = tested on: Enterobacter cloacae FADDI-EC001
Summary of the method: (§2)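 MICs were determined by broth microdilution in cation-adjusted Mueller-Hinton broth following the CLSI M100-S24 protocol. Lipopeptides were tested as trifluoroacetic acid salts against polymyxin-susceptible Gram-negative strains, with polymyxin B sulphate as control. FADDI-PA022 and FADDI-AB034 are multidrug-resistant clinical isolates.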

[4] = tested on: Enterobacter cloacae FADDI-EC003
Summary of the method: as §1

[5] = tested on: Enterobacter cloacae FADDI-EC006
Summary of the method: as §1

[6] = tested on: Klebsiella pneumoniae FADDI-KP022
Summary of the method: as §1

[7] = tested on: Klebsiella pneumoniae FADDI-KP032
Summary of the method: as §1

[8] = tested on: Klebsiella pneumoniae Kp BM1
Summary of the method: as §2

[9] = tested on: Pseudomonas aeruginosa ATCC 27853
Summary of the method: as §1

[10] = tested on: Pseudomonas aeruginosa FADDI-PA01
Summary of the method: as §1

[11] = tested on: Pseudomonas aeruginosa FADDI-PA022
Summary of the method: as §1

[12] = tested on: Pseudomonas aeruginosa FADDI-PA038
Summary of the method: as §1

[13] = tested on: Acinetobacter baumannii FADDI-AB030; assay: microbe, parasite or virus in culture
Summary of the method: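 Broth microdilution MIC in cation-adjusted Mueller-Hinton broth per CLSI M100-S24; lipopeptides tested as TFA salts. FADDI-AB030 is a multidrug-resistant clinical isolate. Polymyxin B sulphate served as control.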

Row | Compound | Minimum inhibitory concentration ([1]; ATCC 17978) [µg/mL] | Minimum inhibitory concentration ([2]; FADDI-AB034) [µg/mL] | Minimum inhibitory concentration ([3]; FADDI-EC001) [µg/mL] | Minimum inhibitory concentration ([4]; FADDI-EC003) [µg/mL] | Minimum inhibitory concentration ([5]; FADDI-EC006) [µg/mL] | Minimum inhibitory concentration ([6]; FADDI-KP022) [µg/mL] | Minimum inhibitory concentration ([7]; FADDI-KP032) [µg/mL] | Minimum inhibitory concentration ([8]; Kp BM1) [µg/mL] | Minimum inhibitory concentration ([9]; ATCC 27853) [µg/mL] | Minimum inhibitory concentration ([10]; FADDI-) [µg/mL] | Minimum inhibitory concentration ([11]; FADDI-PA022) [µg/mL] | Minimum inhibitory concentration ([12]; FADDI-PA038) [µg/mL] | Minimum inhibitory concentration ([13]; FADDI-AB030) [µg/mL] | other results
1 | CC[C@@H]1NC(=O)[C@@H](CC(C)C)NC(=O)[C@H](CCN)NC(=O)[C@@H](NC(=O)[C@H](CN)NC(=O)[C@@H](NC(=O)[C@H](CCN)NC(=O)c2coc(Br)c2)[C@@H](C)O)CCNC(=O)[C@H]([C@@H](C)O)NC(=O)[C@H](CCN)NC(=O)[C@H](CCN)NC1=O [Compound 103] (X68-[Dab]T[Dap][Dab][Dab][dL][Abu][Dab][Dab]T; lactam 4-C) | 1 (≈ 0.862 µM) | 1 (≈ 0.862 µM) | 0.5 (≈ 0.431 µM) | 0.5 (≈ 0.431 µM) | 0.5 (≈ 0.431 µM) | <0.125 | 0.5 (≈ 0.431 µM) | 0.5 (≈ 0.431 µM) | 0.5 (≈ 0.431 µM) | 0.5 (≈ 0.431 µM) | 0.5 (≈ 0.431 µM) | 2 (≈ 1.72 µM) | 1 (≈ 0.862 µM) | –
2 | CC(C)C[C@H]1NC(=O)[C@H](CCN)NC(=O)[C@@H](NC(=O)[C@H](CN)NC(=O)[C@@H](NC(=O)[C@H](CCN)NC(=O)c2cc3ccccc3[nH]2)[C@@H](C)O)CCNC(=O)[C@H]([C@@H](C)O)NC(=O)[C@H](CCN)NC(=O)[C@H](CCN)NC(=O)[C@H]([C@@H](C)O)NC1=O [Compound 66] (X23-[Dab]T[Dap][Dab][Dab][dL]T[Dab][Dab]T; lactam 4-C) | 2 (≈ 1.74 µM) | 1 (≈ 0.872 µM) | 0.5 (≈ 0.436 µM) | 0.5 (≈ 0.436 µM) | 1 (≈ 0.872 µM) | 0.5 (≈ 0.436 µM) | 1 (≈ 0.872 µM) | 0.5 (≈ 0.436 µM) | 0.5 (≈ 0.436 µM) | 2 (≈ 1.74 µM) | 0.25 (≈ 0.218 µM) | 2 (≈ 1.74 µM) | 1 (≈ 0.872 µM) | –
3 | CC[C@@H]1NC(=O)[C@@H](CC(C)C)NC(=O)[C@H](CCN)NC(=O)[C@@H](NC(=O)[C@H](CN)NC(=O)[C@@H](NC(=O)[C@H](CCN)NC(=O)c2noc3ccccc23)[C@@H](C)O)CCNC(=O)[C@H]([C@@H](C)O)NC(=O)[C@H](CCN)NC(=O)[C@H](CCN)NC1=O [Compound 75] (X39-[Dab]T[Dap][Dab][Dab][dL][Abu][Dab][Dab]T; lactam 4-C) | 1 (≈ 0.883 µM) | 0.5 (≈ 0.442 µM) | <0.125 | <0.125 | 1 (≈ 0.883 µM) | <0.125 | 0.25 (≈ 0.221 µM) | 0.25 (≈ 0.221 µM) | 0.5 (≈ 0.442 µM) | 0.5 (≈ 0.442 µM) | 0.5 (≈ 0.442 µM) | 1 (≈ 0.883 µM) | 0.5 (≈ 0.442 µM) | –
4 | CC(C)C[C@H]1NC(=O)[C@H](CCN)NC(=O)[C@@H](NC(=O)[C@H](CN)NC(=O)[C@@H](NC(=O)[C@H](CCN)NC(=O)c2sc3ccccc3c2Cl)[C@@H](C)O)CCNC(=O)[C@H]([C@@H](C)O)NC(=O)[C@H](CCN)NC(=O)[C@H](CCN)NC(=O)[C@H]([C@@H](C)O)NC1=O [Compound 68] (X27-[Dab]T[Dap][Dab][Dab][dL]T[Dab][Dab]T; lactam 4-C) | 0.25 (≈ 0.209 µM) | <0.125 | <0.125 | <0.125 | 0.25 (≈ 0.209 µM) | <0.125 | 0.25 (≈ 0.209 µM) | 0.25 (≈ 0.209 µM) | 0.25 (≈ 0.209 µM) | 0.5 (≈ 0.417 µM) | 0.25 (≈ 0.209 µM) | 1 (≈ 0.835 µM) | <0.125 | –
5 | CC(C)C[C@H]1NC(=O)[C@H](CCN)NC(=O)[C@@H](NC(=O)[C@H](CN)NC(=O)[C@@H](NC(=O)[C@H](CCN)NC(=O)c2sc3ccccc3c2Cl)[C@@H](C)O)CCNC(=O)[C@H]([C@@H](C)O)NC(=O)[C@H](CCN)NC(=O)[C@H](CCN)NC(=O)[C@H](C)NC1=O [Compound 69] (X27-[Dab]T[Dap][Dab][Dab][dL]A[Dab][Dab]T; lactam 4-C) | 0.25 (≈ 0.214 µM) | 0.25 (≈ 0.214 µM) | 1 (≈ 0.856 µM) | 0.25 (≈ 0.214 µM) | 0.25 (≈ 0.214 µM) | <0.125 | 0.25 (≈ 0.214 µM) | 0.25 (≈ 0.214 µM) | 0.5 (≈ 0.428 µM) | 0.5 (≈ 0.428 µM) | 0.5 (≈ 0.428 µM) | 2 (≈ 1.71 µM) | 0.25 (≈ 0.214 µM) | –
6 | Polymyxin B [reference compound] | – | – | – | – | – | – | – | – | – | – | – | – | – | Minimum inhibitory concentration ([1]; A. baumannii ATCC 17978, CAMHB broth microdilution): 1 µg/mL; Minimum inhibitory concentration ([2]; A. baumannii FADDI-AB034, CAMHB broth microdilution): 0.5 µg/mL; Minimum inhibitory concentration ([3]; E. cloacae FADDI-EC001, CAMHB broth microdilution): 0.25 µg/mL; Minimum inhibitory concentration ([4]; E. cloacae FADDI-EC003, CAMHB broth microdilution): 0.5 µg/mL; Minimum inhibitory concentration ([5]; E. cloacae FADDI-EC006, CAMHB broth microdilution): 0.5 µg/mL; Minimum inhibitory concentration ([6]; K. pneumoniae FADDI-KP022, CAMHB broth microdilution): <0.125 µg/mL; Minimum inhibitory concentration ([7]; K. pneumoniae FADDI-KP032, CAMHB broth microdilution): <0.125 µg/mL; Minimum inhibitory concentration ([8]; K. pneumoniae Kp BM1, CAMHB broth microdilution): 0.5 µg/mL; Minimum inhibitory concentration ([9]; P. aeruginosa ATCC 27853, CAMHB broth microdilution): 1 µg/mL; Minimum inhibitory concentration ([10]; P. aeruginosa FADDI-PA01, CAMHB broth microdilution): 0.5 µg/mL; Minimum inhibitory concentration ([11]; P. aeruginosa FADDI-PA022, CAMHB broth microdilution): 1 µg/mL; Minimum inhibitory concentration ([12]; P. aeruginosa FADDI-PA038, CAMHB broth microdilution): 1 µg/mL; Minimum inhibitory concentration ([13]; A. baumannii FADDI-AB030, CAMHB broth microdilution): 0.25 µg/mL; Minimum inhibitory concentration ([13]; clinically used antibiotics, clinical isolate A. baumannii FADDI-AB030): 0.25 µg/mL
7 | CC(C)C[C@H]1NC(=O)[C@H](CCN)NC(=O)[C@@H](NC(=O)[C@H](CN)NC(=O)[C@@H](NC(=O)[C@H](CCN)NC(=O)c2cc3ccccc3n2C)[C@@H](C)O)CCNC(=O)[C@H]([C@@H](C)O)NC(=O)[C@H](CCN)NC(=O)[C@H](CCN)NC(=O)[C@H](C)NC1=O [Compound 65] (X22-[Dab]T[Dap][Dab][Dab][dL]A[Dab][Dab]T; lactam 4-C) | 1 (≈ 0.885 µM) | 1 (≈ 0.885 µM) | 0.5 (≈ 0.442 µM) | 1 (≈ 0.885 µM) | 1 (≈ 0.885 µM) | 0.25 (≈ 0.221 µM) | 0.5 (≈ 0.442 µM) | 0.25 (≈ 0.221 µM) | 0.5 (≈ 0.442 µM) | 0.25 (≈ 0.221 µM) | 0.25 (≈ 0.221 µM) | 0.5 (≈ 0.442 µM) | 0.5 (≈ 0.442 µM) | –
